# According to US9545389B2, “Baclofen and acamprosate based therapy of macular degeneration disorders” (PHARNEXT, priority 2012, dated 2017):
# B1: BDNF: Brain-derived neurotrophic factor, used as a positive control (protein, UniProt P23560 19-247, looked up)
# Neurotrophic factor BDNF …: APMKEANIRGQGGLAYPGVRTHGTLESVNGPKAGSRGLTSLADTFEHVIEELLDEDQKVRPNEENNKDADLYTSRVMLSSQVPLEPPLLFLLEEYKNYLDAANMSMRVRRHSDPARRGELSVCDSISEWVTAADKKTAVDMSGGTVTVLEKVPVSKGQLKQYFYETKCNPMGYTKEGCRGIDKRHWNSQCRTTQSYVRALTMDSKKRIGWRFIRIDTSCVCTLTIKRGR
# What was measured:
# Format in all cases: cell-based
# [1] = tested on: Rat dopaminergic neurons (mesencephalic culture); assay: TH neurons survival test after 48 h 6-OHDA injury on dopaminergic neurons; details: for In vitro 6OHDA resistance: TH neurons survival after 48 h 6-OHDA (20 μM) injury
# Procedure: Rat dopaminergic neurons were cultured as described by Schinelli et al. (1988). Pregnant female rats of 15 days gestation were killed by cervical dislocation (Rats Wistar; Janvier) and the foetuses removed from the uterus. The embryonic midbrains were removed and placed in ice-cold medium of Leibovitz (L15; PanBiotech) containing 2% of Penicillin-Streptomycin (PS; PanBiotech) and 1% of bovine serum albumin (BSA; PanBiotech). Only the ventral portions of the mesencephalic flexure were used for the cell preparations as this is the region of the developing brain rich in dopaminergic neurons. The midbrains were dissociated by trypsinisation for 20 min at 37° C. (Trypsin EDTA 1×; PanBiotech). The reaction is stopped by the addition of Dulbecco's modified Eagle's medium (DMEM; PanBiotech) containing DNAase I grade II (0.1 mg/ml; PanBiotech) and 10% of foetal calf serum (FCS; Invitrogen). Cells were then mechanically dissociated by 3 passages through a 10 ml pipette and centrifuged at 180×g for 10 min at +4° C. on a layer of BSA (3.5%) in L15 medium. The supernatant was discarded and the cells of pellet were re-suspended in a defined culture medium consisting of Neurobasal (Invitrogen) supplemented with B27 (2%; Invitrogen), L-glutamine (2 mM; PanBiotech) and 2% of PS solution and 10 ng/ml of Brain-derived neurotrophic factor (BDNF, PanBiotech) and 1 ng/ml of Glial-Derived Neurotrophic Factor (GDNF, PanBiotech). Viable cells were counted in a Neubauer cytometer using the trypan blue exclusion test. The cells were seeded at a density of 40 000 cells/well in 96 well-plates (pre-coated with poly-L-lysine (Greiner)) and are cultured at 37° C. in a humidified air (95%)/CO2 (5%) atmosphere. Half of the medium was changed every 2 days with fresh medium. Five to six percents of the neuronal cell population were dopaminergic neurons. […]
# Data are expressed in percentage of control conditions (no intoxication, no 6OHDA=100%) in order to express the 6OHDA injury. All values are expressed as mean+/−SEM (s.e. mean) of the 3 cultures (n=6 wells per condition per culture). […]
# Rat cortical neurons [2] = assay: MetO assay (oxidative stress) in human amyloid-β1-42 intoxicated cortical neurons; parameters: key: − and −− intensity of lowering effect of compositions; − and −− intensity of lowering effect of compositions; details: Aβ1-42 1.25 μM 4 hours; lowering effect
# Procedure: (§1) Rat cortical neurons were cultured as described by Singer et al., 1999 [28]. Briefly pregnant female rats of 15 days gestation were killed by cervical dislocation (Rats Wistar) and the fetuses were removed from the uterus. The cortex were removed and placed in ice-cold medium of Leibovitz (L15) containing 2% of Penicillin 10.000 U/ml and Streptomycin 10 mg/ml and 1% of bovine serum albumin (BSA). Cortex were dissociated by trypsin (0.05%) for 20 min at 37° C. The reaction was stopped by the addition of Dulbecco's modified Eagle's medium (DMEM) containing DNase1 grade II (0.1 mg/mL) and 10% of fetal calf serum (FCS). Cells were then mechanically dissociated by 3 serial passages through a 10 ml pipette. Cells were then centrifuged at 515×g for 10 min at 10° C. The supernatant was discarded and the pellet of cells will be re-suspended in a defined culture medium consisting of Neurobasal supplemented with B27 (2%), L-glutamine (0.2 mM), 2% of PS solution and 10 ng/mL of BDNF. Viable cells were counted in a Neubauer cytometer using the trypan blue exclusion test. […]
# (§2) Data are expressed in percentage of control conditions (no intoxication, no amyloid=100%) in order to express the amyloid injury. All values are expressed as mean+/−SEM (s.e. mean) of the 3 cultures (n=6 wells per condition). […]
# Rat cortical neurons [3] = assay: Cytoplasmic cytochrome C (CytoC) assay in human amyloid-β1-42 intoxicated cortical neurons; parameters: key: − and −− intensity of lowering effect of compositions; − and −− intensity of lowering effect of compositions; details: Aβ1-42 1.25 μM 4 hours; lowering effect
# Procedure: as §1, §2
molecule,measurement,setting,value
CC(=O)NCCCS(=O)(=O)O [Acamprosate],In vitro 6OHDA resistance,[1],improvement
same,In vitro MetO level,Rat cortical neurons [2],−
same,In vitro CytC level,Rat cortical neurons [3],−
NCC(CC(=O)O)c1ccc(Cl)cc1 (stereo not shown) [Baclofen],In vitro 6OHDA resistance,[1],improvement
same,In vitro MetO level,Rat cortical neurons [2],−
same,In vitro CytC level,Rat cortical neurons [3],−
B1,protection of dopaminergic neurons from 6-OHDA injury,"[1]; 1 hour pre-treatment at 1.85 nM, positive control",significantly protected
